Experiments:
[1] = test system: ABUTH; experiment: Pre-emergence herbicidal action against ABUTH; assay type: in vivo, Abutilon theophrasti; settings: Abutilon theophrasti, 504 h; for pest or weed control at 80 g/ha: scored visually after 3 weeks vs untreated controls (100% = plants have died, 0% = like control plants); for pest or weed control at 20 g/ha: dosage 20 g/ha, scored visually after 3 weeks vs untreated controls, 100% = plants have died, 0% = like control plants, read-out: Pre-emergence action against ABUTH (herbicidal activity in percent)
How it was run: (§1)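 Seeds sown in sandy loam, soil-covered; compound sprayed on soil surface pre-emergence. Application: WP/EC, 600–800 l/ha, 0.2% wetting agent. Readout: visual % damage at 3 weeks.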

[2] = test system: ALOMY; experiment: Pre-emergence herbicidal action against ALOMY; assay type: in vivo, Alopecurus myosuroides; settings: Alopecurus myosuroides, 504 h, pre-emergence; for pest or weed control at 80 g/ha: scored visually after 3 weeks vs untreated controls (100% = plants have died, 0% = like control plants)
How it was run: as §1

[3] = test system: AMARE; experiment: Pre-emergence herbicidal action against AMARE; assay type: in vivo, Amaranthus retroflexus; settings: Amaranthus retroflexus, 504 h, scored visually after 3 weeks vs untreated controls, 100% = plants have died, 0% = like control plants
How it was run: as §1

[4] = test system: AVEFA; experiment: Pre-emergence herbicidal action against AVEFA; assay type: in vivo, Avena fatua; settings: Avena fatua, 504 h, pre-emergence
How it was run: as §1

[5] = test system: ECHCG; experiment: Pre-emergence herbicidal action against ECHCG; assay type: in vivo, Echinochloa crus-galli; settings: Echinochloa crus-galli, 504 h
How it was run: as §1

[6] = test system: LOLRI; experiment: Pre-emergence herbicidal action against LOLRI; assay type: in vivo, Lolium rigidum; settings: Lolium rigidum, 504 h, 80 g/ha
How it was run: as §1

[7] = test system: MATIN; experiment: Pre-emergence herbicidal action against MATIN; assay type: in vivo, Matricaria inodora; settings: Tripleurospermum inodorum, 504 h; for pest or weed control at 20 g/ha: dosage 20 g/ha; for pest or weed control at 80 g/ha: dosage 80 g/ha
How it was run: as §1

[8] = test system: PHBPU; experiment: Pre-emergence herbicidal action against PHBPU; assay type: in vivo, Pharbitis purpurea; settings: Ipomoea purpurea, 504 h, dosage 80 g/ha
How it was run: as §1

[9] = test system: POLCO; experiment: Pre-emergence herbicidal action against POLCO; assay type: in vivo, Polygonum convolvulus; settings: Fallopia convolvulus, 504 h, dosage 80 g/ha
How it was run: as §1

[10] = test system: SETVI; experiment: Pre-emergence herbicidal action against SETVI; assay type: in vivo, Setaria viridis; settings: Setaria viridis, 504 h; for pest or weed control at 80 g/ha: dosage 80 g/ha
How it was run: as §1

[11] = test system: VERPE; experiment: Pre-emergence herbicidal action against VERPE; assay type: in vivo, Veronica persica; settings: Veronica persica, 504 h, dosage 80 g/ha
How it was run: as §1

[12] = test system: VIOTR; experiment: Pre-emergence herbicidal action against VIOTR; assay type: in vivo, Viola tricolor; settings: Viola tricolor, 504 h; for pest or weed control at 20 g/ha: dosage 20 g/ha; for pest or weed control at 80 g/ha: dosage 80 g/ha
How it was run: as §1

[13] = test system: DIGSA; experiment: Pre-emergence herbicidal action against DIGSA; assay type: in vivo, Digitaria sanguinalis; settings: Digitaria sanguinalis, 504 h; for pest or weed control at 20 g/ha: dosage 20 g/ha; for pest or weed control at 80 g/ha: dosage 80 g/ha
How it was run: as §1

[14] = test system: ABUTH; experiment: Post-emergence herbicidal action against ABUTH; assay type: in vivo, Abutilon theophrasti; settings: Abutilon theophrasti, 504 h, visual assessment about 3 weeks after treatment vs untreated controls; for pest or weed control at 5 g/ha: dosage 5 g/ha; for pest or weed control at 20 g/ha: dosage 20 g/ha
How it was run: (§2)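 Sandy loam, greenhouse; treatment 2–3 weeks after sowing, one-leaf stage. Aqueous suspension or emulsion from WP/EC sprayed on foliage (600–800 l/ha, 0.2% wetting agent). Readout: visual % action, ~3 weeks.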

[15] = test system: AMARE; experiment: Post-emergence herbicidal action against AMARE; assay type: in vivo, Amaranthus retroflexus; settings: Amaranthus retroflexus, 504 h, 20 g/ha, visual assessment about 3 weeks after treatment, 100% = plants have died, 0% = like control plants
How it was run: as §2

[16] = test system: AVEFA; experiment: Post-emergence herbicidal action against AVEFA; assay type: in vivo, Avena fatua; settings: Avena fatua, 504 h, 20 g/ha, visual assessment about 3 weeks after treatment, 100% = plants have died, 0% = like control plants
How it was run: as §2

[17] = test system: PHBPU; experiment: Post-emergence herbicidal action against PHBPU; assay type: in vivo, Pharbitis purpurea; settings: Ipomoea purpurea, 504 h; for pest or weed control at 5 g/ha: dosage 5 g/ha; for pest or weed control at 20 g/ha: dosage 20 g/ha
How it was run: as §2

[18] = test system: VERPE; experiment: Post-emergence herbicidal action against VERPE; assay type: in vivo, Veronica persica; settings: Veronica persica, 504 h, 20 g/ha
How it was run: as §2

[19] = test system: VIOTR; experiment: Post-emergence herbicidal action against VIOTR; assay type: in vivo, Viola tricolor; settings: Viola tricolor, 504 h
How it was run: as §2

[20] = test system: DIGSA; experiment: Post-emergence herbicidal action against DIGSA; assay type: in vivo, Digitaria sanguinalis; settings: Digitaria sanguinalis, 504 h
How it was run: as §2

[21] = test system: ALOMY; experiment: Post-emergence herbicidal action against ALOMY; assay type: in vivo, Alopecurus myosuroides; settings: Alopecurus myosuroides, 504 h, dosage 20 g/ha, visual assessment about 3 weeks after treatment vs untreated controls
How it was run: as §2

[22] = test system: ECHCG; experiment: Post-emergence herbicidal action against ECHCG; assay type: in vivo, Echinochloa crus-galli; settings: Echinochloa crus-galli, 504 h
How it was run: as §2

[23] = test system: MATIN; experiment: Post-emergence herbicidal action against MATIN; assay type: in vivo, Matricaria inodora; settings: Tripleurospermum inodorum, 504 h
How it was run: as §2

[24] = test system: SETVI; experiment: Post-emergence herbicidal action against SETVI; assay type: in vivo, Setaria viridis; settings: Setaria viridis, 504 h
How it was run: as §2

[25] = 20 g/ha, scored visually after 3 weeks, 100% = plants have died, 0% = like control plants

SMILES	pest or weed control at 80 g/ha [1]	pest or weed control at 20 g/ha [1]	pest or weed control at 80 g/ha [2]	pest or weed control at 20 g/ha [3]	pest or weed control at 80 g/ha [3]	pest or weed control at 80 g/ha [4]	pest or weed control at 20 g/ha [5]	pest or weed control at 80 g/ha [5]	pest or weed control at 80 g/ha [6]	pest or weed control at 20 g/ha [7]	pest or weed control at 80 g/ha [7]	pest or weed control at 80 g/ha [8]	pest or weed control at 80 g/ha [9]	pest or weed control at 80 g/ha [10]	pest or weed control at 80 g/ha [11]	pest or weed control at 20 g/ha [12]	pest or weed control at 80 g/ha [12]	pest or weed control at 20 g/ha [13]	pest or weed control at 80 g/ha [13]	pest or weed control at 5 g/ha [14]	other results
Cn1nnnc1NC(=O)c1ccc(C(F)F)c(C(=O)NC2CC2)c1Br [Example 1-227]	100%	100%	100%	100%	100%	90%	80%	90%	90%	80%	100%	80%	90%	100%	100%	100%	100%	100%	100%	100%	pest or weed control at 20 g/ha [2, 25]: 80%; pest or weed control at 20 g/ha [14]: 100%; pest or weed control at 20 g/ha [15]: 100%; pest or weed control at 20 g/ha [16]: 80%; pest or weed control at 5 g/ha [17]: 80%; pest or weed control at 20 g/ha [17]: 90%; pest or weed control at 20 g/ha [18]: 80%; pest or weed control at 5 g/ha [19]: 100%; pest or weed control at 20 g/ha [19]: 100%; pest or weed control at 5 g/ha [20]: 100%; pest or weed control at 20 g/ha [20]: 100%
CCn1nnnc1NC(=O)c1ccc(C(F)(F)F)c(C(=O)NC2CC2)c1C1CC1 [Example 2-288]	100%	100%	90%	100%	100%	90%	90%	100%	90%	90%	100%	90%	90%	100%	100%	100%	100%	100%	100%	80%	pest or weed control at 20 g/ha [4, 25]: 80%; pest or weed control at 20 g/ha ([10]; dosage 20 g/ha): 90%; pest or weed control at 20 g/ha [14]: 80%; pest or weed control at 20 g/ha [21]: 90%; pest or weed control at 20 g/ha [15]: 100%; pest or weed control at 20 g/ha [16]: 80%; pest or weed control at 5 g/ha ([22]; dosage 5 g/ha): 80%; pest or weed control at 20 g/ha ([22]; dosage 20 g/ha): 80%; pest or weed control at 5 g/ha ([23]; dosage 5 g/ha): 80%; pest or weed control at 20 g/ha ([23]; dosage 20 g/ha): 90%; pest or weed control at 5 g/ha [17]: 80%; pest or weed control at 20 g/ha [17]: 90%; pest or weed control at 5 g/ha ([24]; dosage 5 g/ha): 80%; pest or weed control at 20 g/ha ([24]; dosage 20 g/ha): 90%; pest or weed control at 20 g/ha [18]: 80%; pest or weed control at 5 g/ha [19]: 90%; pest or weed control at 20 g/ha [19]: 100%; pest or weed control at 5 g/ha [20]: 90%; pest or weed control at 20 g/ha [20]: 90%

Source: patent publication US12655116B2, “Substituted isophthalic acid diamides” (Bayer Aktiengesellschaft, priority 2020, dated 2026)
